In patent US20220362365A1, “IMPROVED COMPOSITIONS AND METHODS FOR SHARED NEO-EPITOPE VACCINES” (Epivax Therapeutics Inc., priority 2019, published 2022):

Key:
CT26 tumor cells = test: CT26 tumor growth / survival after vaccination (Example 1); assay type: in vivo; conditions: CT26 tumor-bearing Balb/c mice
[1] = tested on: CT26 murine colon tumor cells; test: Anti-tumor activity with or without poly-ICLC, CT26 murine tumor model (Example 13); assay type: in vivo; conditions: CT26 tumor-bearing BALB/c mice, n=10, day 25 post-tumor implantation, relative to PBS or poly-ICLC alone
Procedure: The goal of this experiment was to determine the requirement for the inclusion of the adjuvant poly-ICLC in a peptide vaccine containing ANCER™ selected neoantigens. For this experiment, female BALB/c mice were implanted subcutaneously with 3×10^5 CT26 murine colon tumor cells. Tumor growth was monitored by caliper measurement and mice were sacrificed 45 days after tumor implantation or when tumor volumes reached 2000 mm^3, whichever came first.
Four vaccine groups were tested (n=10 mice/group): • Group 1=PBS only • Group 2=PBS with 50 μg poly-ICLC • Group 3=20 ANCER™ selected (uncapped) peptides with 50 μg poly-ICLC • Group 4=20 ANCER™ selected (uncapped) peptides only
Peptide vaccines were comprised of 20 different ANCER™ selected peptides at a concentration of 5 μg/peptide for a total dose of 100 μg peptide per immunization. Mice were immunized subcutaneously in the opposite flank from tumor implantation twice per week for three weeks, starting at day 4 post-tumor implantation.

Substance: poly-ICLC
- tumor burden compared to Group 1 (mice immunized with PBS) (CT26 tumor cells; 50 μg sc days 5, 8, 12, 15, 19, 22, 26): no reduction in tumor burden
- mice surviving past day 28 (CT26 tumor cells; N=10): Less than 50%
- mice surviving the 45 days of the experiment (in words) (CT26 tumor cells; N=10): None
- mice reaching a tumor volume of at least 2,000 mm^3 (endpoint) by day 28 (CT26 tumor cells; N=10, day 28, PBS group 70%): 60%
- control of tumor growth [1]: no difference in tumor growth kinetics
